For assay [1], the target named is T1, AMP deaminase 1 (Oryctolagus cuniculus, UniProt P81072).
T1 sequence (P81072 whole entry): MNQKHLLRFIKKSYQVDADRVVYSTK
Put plainly: Inhibition of Oryctolagus cuniculus (rabbit) muscle adenylate deaminase. Details: species or system Muscle tissue.

A short description of assay [2]: Inhibition of adenylate deaminase.
The target in assay [3] is T2, Adenosine deaminase (Bos taurus, UniProt P56658).
T2 sequence (P56658 whole entry): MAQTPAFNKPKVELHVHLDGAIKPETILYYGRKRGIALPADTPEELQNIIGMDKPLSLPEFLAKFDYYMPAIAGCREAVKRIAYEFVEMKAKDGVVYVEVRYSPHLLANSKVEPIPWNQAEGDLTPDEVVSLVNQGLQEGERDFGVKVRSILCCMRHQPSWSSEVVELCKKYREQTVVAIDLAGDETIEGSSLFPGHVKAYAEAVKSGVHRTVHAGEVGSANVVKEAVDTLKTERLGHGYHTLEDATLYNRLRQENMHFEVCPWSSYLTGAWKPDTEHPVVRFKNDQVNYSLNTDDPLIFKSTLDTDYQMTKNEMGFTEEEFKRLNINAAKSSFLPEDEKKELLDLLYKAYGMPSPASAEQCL
The assay is described as follows: Inhibition of Bos taurus (calf) […].

Assay [4] deals with Pisum sativum. The assay is described as follows: Increase in ATP levels in Pisum sativum (pea) seedlings at 100 uM measured per gram of frozen weight after 24 hr by luciferase based assay (reference value: 213 to 226 nmol/g of frozen weight). In kind it is functional, Lathyrus oleraceus.
Assay [5] has as its system Pisum sativum. Put plainly: Increase in ATP levels in Pisum sativum (pea) seedlings at 100 uM measured per gram of frozen weight after 4 hr by luciferase based assay (reference value: 253 to 267 nmol/g of frozen weight). It counts as functional, Lathyrus oleraceus.

Molecules are shown by their SMILES. Calls of active or inactive are those of the source. The rule behind the calls is not given here.

Regarding `O=P(O)(O)OC[C@H]1O[C@@H](c2n[nH]c3cncnc23)[C@H](O)[C@@H]1O`, the IC50 in assay [1] turned out to be 0.07 µM. As for `O=P(O)(O)OC[C@H]1O[C@@H](n2cnc3cncnc32)[C@H](O)[C@@H]1O`, the affinity in assay [1], expressed as Ki, was 6.5 µM. For the molecule `O=P(O)(O)OC[C@H]1C[C@@H](n2cnc3cncnc32)[C@H](O)[C@@H]1O`, the inhibition result in assay [2] was “inactive”. The same measure, in the same setting: the result for `OC[C@H]1C[C@@H](n2cnc3cncnc32)[C@H](O)[C@@H]1O` reads “inactive”. Regarding `OC[C@H]1O[C@@H](c2n[nH]c3cncnc23)[C@H](O)[C@@H]1O` [DEAMINOFORMYCIN], the IC50 in assay [3] is 5 µM. Further, the Activity in assay [4] stood at 693 nmol; in assay [5], 423 nmol. Moreover, in assay [2], the inhibition result is “inactive”.

One may read the IC50 as the concentration needed to halve the response being measured. Higher therefore signals weaker potency in that assay. Broadly, the Ki is the dissociation constant of the complex between target and ligand, obtained from inhibition or displacement. A lower Ki goes with tighter binding.
